This data set is described as follows: Dissolving time of the troche. It is filed as physicochemical.
The mark [1] stands for this setting: ingredient in troche of Example 4f.
Where [2] appears, read: ingredient in troche of Example 4i.
Setting [3] is: ingredient in troche of Example 4j.
[4] abbreviates: ingredient in troche of Example 4k.
[5] abbreviates: ingredient in troche of Example 4l.
Setting [6] is: ingredient in troche of Example 4m.
Setting [7] is: ingredient in troche of Example 4n.
[8] abbreviates: ingredient in troche of Example 4o (ButterCream).
[9] abbreviates: ingredient in troche of Example 4o (Vanilla, Marshmallow).
Setting [10] is: ingredient in troche of Example 4p.
Where [11] appears, read: ingredient in troche of Example 4c, troche with silica, acacia and Winterfresh.
Where [12] appears, read: ingredient in troche of Example 42.
Setting [13] is: ingredient in troche of Example 4h.
Setting [14] is: ingredient in troche of Example 4d, troche with Alpha agent, silica, acacia, cherry.

As to `CC1=CC(=O)NS(=O)(=O)O1` [Acesulfame], the “Dissolving time: remark for the single ingredient” value (“Dissolving time: remark” below) is “No effect” under setting [1]; “No effect” under setting [2]; “No effect” under setting [3]; “No effect” under setting [4]; “No effect” under setting [5]; “No effect” under setting [6]. For the same compound, the “Dissolving time: remark” value under setting [7] is “No effect”, the “Dissolving time: remark” value under setting [8] is “No effect”, the “Dissolving time: remark” value under setting [9] is on record as “No effect” and the “Dissolving time: remark” value under setting [10] is given as “No effect”.
In the case of `CCCc1nn(C)c2c(=O)[nH]c(-c3cc(S(=O)(=O)N4CCN(C)CC4)ccc3OCC)nc12` [Sildenafil, reference compound], the “Dissolving time: remark” value under setting [11] is recorded as “No effect”; the “Dissolving time: remark” value (ingredient in troche of Example 4e) is given as “No effect”; the “Dissolving time: remark” value under setting [1] was “No effect”; the “Dissolving time: remark” value under setting [2] is recorded as “No effect”; the “Dissolving time: remark” value under setting [3] is reported as “No effect”; the “Dissolving time: remark” value under setting [4] is on record as “No effect”. In addition, the “Dissolving time: remark” value is recorded as “No effect” under setting [5]; “No effect” under setting [6]; “No effect” under setting [7]; “No effect” under setting [8]; “No effect” under setting [9]; “No effect” under setting [10]. Also, the “Dissolving time: remark” value under setting [12] is “No effect”, the “Dissolving time: remark” value under setting [13] was “No effect” and the “Dissolving time: remark” value under setting [14] is listed as “No effect”.
Turning to `C=C1C[C@@]23CC[C@H]4[C@@](C)(CCC[C@@]4(C)C(=O)O)[C@@H]2CC[C@]1(O)C3` [Steviol], the “Dissolving time: remark” value is reported as “No effect” under setting [3]; “No effect” under setting [4]; “No effect” under setting [5]; “No effect” under setting [6]; “No effect” under setting [7]; “No effect” under setting [8]. For the same compound, the “Dissolving time: remark” value runs as follows: under setting [9], “No effect”; under setting [10], “No effect”; under setting [12], “No effect”; under setting [13], “No effect”.
For Sugar, the “Dissolving time: remark” value (ingredient in troche of Example 4b) is reported as “Did Not Help”, the “Dissolving time: remark” value under setting [11] is recorded as “Did Not Help” and the “Dissolving time: remark” value under setting [14] is listed as “No effect”.
